Experiments:
[1] = target: Prostaglandin E2 receptor EP4 subtype (Oryctolagus cuniculus, UniProt Q28691); experiment: Agonist activity at rabbit EP4 receptor assessed as relaxation of Kcl-induced tissue contraction by isometric transducer method; type: functional
[2] = Agonist activity at Prostaglandin E2 receptor EP1/EP2 in guinea pig ileum; type: functional, tissue-based; conditions: Cavia porcellus
[3] = Agonist activity at EP3 receptor in guinea pig uterus assessed as concentration required to reach uterine motility index number 2000; type: functional, Cavia porcellus

Sequence of Prostaglandin E2 receptor EP4 subtype (Q28691 whole entry): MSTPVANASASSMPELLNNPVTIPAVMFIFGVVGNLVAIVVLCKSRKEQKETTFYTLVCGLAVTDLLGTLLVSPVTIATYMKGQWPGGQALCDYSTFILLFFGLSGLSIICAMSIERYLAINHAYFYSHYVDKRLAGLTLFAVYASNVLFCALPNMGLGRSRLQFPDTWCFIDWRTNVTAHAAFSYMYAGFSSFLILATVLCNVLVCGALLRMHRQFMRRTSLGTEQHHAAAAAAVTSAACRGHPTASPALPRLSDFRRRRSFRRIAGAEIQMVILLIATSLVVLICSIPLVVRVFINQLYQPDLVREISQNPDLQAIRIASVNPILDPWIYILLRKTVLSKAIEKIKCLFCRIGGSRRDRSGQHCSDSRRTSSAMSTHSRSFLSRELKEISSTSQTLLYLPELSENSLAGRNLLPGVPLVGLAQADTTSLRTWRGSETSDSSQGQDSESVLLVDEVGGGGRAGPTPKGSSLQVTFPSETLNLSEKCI

Row | Compound | EC50 [1] | EC50 [2] | EC [3]
1 | O[C@H](/C=C/[C@@H]1[C@H]2c3cccc(CCc4nnn[nH]4)c3O[C@H]2C[C@H]1O)CC1CCCCC1 | 2.6 nM | 3400 nM | 2800 nM
2 | O=C(O)CCc1cccc2c1O[C@H]1C[C@@H](O)[C@H](/C=C/[C@@H](O)CC3CCCCC3)[C@@H]21 | 5.7 nM | 150 nM | 540 nM

Source: ChEMBL document CHEMBL1926534, “Efficient synthesis of a novel m-phenylene derivative as a selective EP4 agonist inducing follicular growth and maturation in the ovary” (Bioorg Med Chem Lett, 2011)
